According to US5196412A, “Gallium compounds” (Johnson Matthey, Inc., priority 1991, dated 1993):
Read-outs that look alike come from different tables or passages of the source.

Legend:
[1] = oral absorption of gallium in rats (4-hour plasma gallium AUC); format: in vivo, Male Sprague Dawley rats; conditions: rat, 0.067 mmol/kg, 0-4 hours, absorption from the intestine
Experimental: According to the invention, compounds were tested for oral absorption in rats. Male Sprague Dawley rats weighing 150-225 g were purchased from Harlan Sprague Dawley, Inc. (Indianapolis, Ind.). The gallium standard solution is from Aldrich Chemical Co (Milwaukee, Wis.). Metofane is a product from Pitman-Moore (Mundelein, Ill.), and all other chemicals are commercially available. Gallium test compounds were dissolved in 18 megaohm water (Millipore, Bedford, Mass.) or suspended in 0.5% carboxymethyl cellulose in 5% ethanol, if the compound was not water soluble. The suspensions were sonicated at room temperature for about 5 minutes. […]
Sutures were made with 3-4 stitches with 3-0 silk surgical thread (Ethicon Inc, Somerville, N.J.). […] The blood was placed in 1 ml Eppendorf tubes precoated with 50 μl heparin (1,000 U/ml and air dried, so there was no blood dilution involved. The plasma was recovered after the blood was centrifuged for 2 minutes in a Fischer Micro-centrifuge, Model 235B, and its gallium content measured by a Varian Flameless Atomic Absorption Spectrometer. The standard curve was linear in the gallium concentrations of 5-100 ng/ml. The data under the […] versus time curve (AUC) for 0-4 hours was estimated. […]

[2] = pH 4.5-7; cited from earlier work
[3] = system: gastro-intestinal tract; conditions: pH 4.5-7; cited from earlier work
[4] = system: bone; conditions: cited from earlier work
[5] = system: renal toxicity; conditions: cited from earlier work
[6] = system: cancer-associated hypercalcemia; conditions: cited from earlier work

Which “4-hour plasma gallium AUC” value [1] does the source give for O=[N+]([O-])[O-].O=[N+]([O-])[O-].O=[N+]([O-])[O-].[Ga+3] [Ga(NO3)3, gallium nitrate] here?
The value was 897 (ng//ml)h.

Which results are given for [Ga+3] [gallium(III) aquo-ion]?
hydrolysis [2]: extensively hydrolysed to insoluble hydroxides; absorption [3]: very poorly absorbed

Which results are given for [Ga] [gallium]?
bone strength [4]: increases bone strength; resorption of calcium from bone [4]: inhibiting the resorption of calcium from bone; renal toxicity ([5]; i.v. bolus): renal toxicity is dose-limiting; renal toxicity ([5]; seven day continuous i.v. infusion, cancer-associated hypercalcemia): showed no renal toxicity; serum calcium ([6]; patients with hypercalcemia of malignancy): reduce serum calcium; efficacy in cancer-associated hypercalcemia ([6]; seven day continuous i.v. infusion): effective
